Assay results taken from patent publication US8673929B2, “4,6-di- and 2,4,6-trisubstituted quinazoline derivatives and pharmaceutical compositions useful for treating viral infections” (priority 2006, dated 2014).

Legend:
[1] = tested on: HCV replicon; test: Anti-HCV replicon assay, EC50 (luciferase readout); type: cell-based; details: Hepatitis C virus, 72 h; Huh-7 HCV replicon cells, 3 days incubation, luciferase luminescence
Description: (§1) The anti HCV activity of the quinazoline derivatives of this invention was tested in a human hepatoma Huh-7 cell line harbouring a HCV replicon. The assay comprised the following steps:
(§2) Step 1: compound preparation and serial dilution • 1. for water soluble quinazoline derivatives, a volume of 500 μL of solution in cell media (DMEM, 10% FBS, P/S, L-Glutamine) was prepared with a concentration being twice the concentration of the starting final serial dilution concentration. A volume of 150 μL of the solution was added to the pre-specified wells in column 1 of a 96-well cell culture plate (PerkinElmer, white plate, cat. #6005181, for EC50 assay; black plate, cat. #6005182 for CC50 assay). The rest of the plate, columns 2-12, was filled with 100 μL of cell media. The plate was then placed on a Precision 2000 Workstation to start the serial dilution. Compounds were diluted three times each step from column 1 to column 10. Column 11 was used as a blank control (no compound added). • 2. for quinazoline derivatives requiring DMSO to dissolve, serial dilution is performed in 50% DMSO in a 384-well plate. A solution containing a compound at 100-fold concentration of the starting final serial dilution concentration was prepared in 50% DMSO and added to the pre-specified wells in column 1 of a polypropylene 384-well plate. The plate was then placed on a Precision 2000 Workstation to start the serial dilution. After the serial dilution, a volume of 2 μL of the solution was transferred from the 384-well plate to a 96-well cell culture plate containing 100 μL of cell media on a Biomek FX Workstation. The DMSO concentration in the final assay condition was 0.5% after cells are added to the plate and the total volume in each well is brought to 200 μL.
(§3) Step 2: to each well of the serial dilution plate prepared above, 100 μL of cell media containing 6000 suspended Huh-7 HCV replicon cells was added with a Multidrop workstation. The plates were incubated for 3 days at 37° C. with 5% CO2.
(§4) Step 3: detection: • a) for the EC50 assay, the media in a 96-well cell culture plate was aspirated with a Biotek EL405 plate-washer. A volume of 200 μL of a solution containing a 1:1 mixture of cell-lysis buffer (Promega, Luciferase Cell Culture Lysis 5× Reagent, cat. #E1531) and luciferase substrate solution (Promega, Luciferase Assay, cat.# E4550) was added to each well of the plate with Multidrop. The plate was incubated for 30 minutes at room temperature before the luminescence signal was measured with a TopCount plate-reader. • b) for the CC50 assay, a volume of 100 μL of pre-mixed CellTiter-Glo (Promega, cat.# G7572) solution is added directly to the cell culture in each well of the plate and the luminescence signal is measured with a TopCount plate-reader after 10 minutes of incubation at room temperature.
(§5) Results in the table below are expressed by the following data: • the 50% cytostatic concentration (CC50), i.e. the concentration that results in 50% inhibition of cell growth, and • the 50% effective concentration (EC50), i.e. the concentration that […].

[2] = CC50 assay in the anti-HCV replicon assay (CellTiter-Glo); type: cell-based, human; details: human, Huh-7 hepatoma cells harbouring an HCV replicon; Huh-7 HCV replicon cells, 3 days incubation, CellTiter-Glo luminescence
Description: as §1, §2, §3, §4, §5

Structure (SMILES)	EC50 [1] [µM]	CC50 at 3 days [2] [µM]
CCOc1nc(N)nc2ccc(-c3ccco3)cc12 [Example 44, 4-Ethoxy-6-furan-2-yl-quinazolin-2-ylamine]	1 to 10	> 20
CCOc1nc(N)nc2ccc(-c3ccsc3)cc12 [Example 45, 4-Ethoxy-6-thiophen-3-yl-quinazolin-2-ylamine]	1 to 10	> 20
CCOc1nc(N)nc2ccc(-c3ccc(F)c(F)c3)cc12 [Example 46, 6-(3,4-Difluoro-phenyl)-4-ethoxy-quinazolin-2-ylamine]	1 to 10	> 20
CCOc1nc(N)nc2ccc(-c3cccc(C#N)c3)cc12 [Example 47, 3-(2-Amino-4-ethoxy-quinazolin-6-yl)-benzonitrile]	1 to 10	> 20
CCOc1nc(N)nc2ccc(-c3cn[nH]c3)cc12 [Example 48, 4-Ethoxy-6-(2H-pyrazol-4-yl)-quinazolin-2-ylamine]	0.3 to 1	> 20
CCOc1nc(N)nc2ccc(-c3ccc(N)cc3)cc12 [Example 49, 6-(4-Amino-phenyl)-4-ethoxy-quinazolin-2-ylamine]	1 to 10	> 20
CCOc1nc(N)nc2ccc(-c3ccc(F)c(F)c3F)cc12 [Example 50, 4-Ethoxy-6-(2,3,4-trifluoro-phenyl)-quinazolin-2-ylamine]	1 to 10	10 to 20
CCOc1nc(N)nc2ccc(-c3ccc(O)cc3)cc12 [Example 51, 4-(2-Amino-4-ethoxy-quinazolin-6-yl)-phenol]	0.3 to 1	10 to 20
COCCOc1nc(N)nc2ccc(-c3cccc(F)c3F)cc12 [Example 52, 6-(2,3-Difluoro-phenyl)-4-(2-methoxy-ethoxy)-quinazolin-2-ylamine]	1 to 10	10 to 20
COCCOc1nc(N)nc2ccc(-c3ccccc3C(F)(F)F)cc12 [Example 53, 4-(2-Methoxy-ethoxy)-6-(2-trifluoromethyl-phenyl)-quinazolin-2-ylamine]	1 to 10	< 10
COCCOc1nc(N)nc2ccc(-c3ccc(Cl)s3)cc12 [Example 54, 6-(5-Chloro-thiophen-2-yl)-4-(2-methoxy-ethoxy)-quinazolin-2-ylamine]	1 to 10	> 20
COCCOc1nc(N)nc2ccc(-c3ccc(C)cc3)cc12 [Example 55, 4-(2-Methoxy-ethoxy)-6-p-tolyl-quinazolin-2-ylamine]	1 to 10	> 20
COCCOc1nc(N)nc2ccc(-c3cc4ccccc4s3)cc12 [Example 56, 6-Benzo[b]thiophen-2-yl-4-(2-methoxy-ethoxy)-quinazolin-2-ylamine]	1 to 10	> 20
COCCOc1nc(N)nc2ccc(-c3cc4ccccc4o3)cc12 [Example 57, 6-Benzofuran-2-yl-4-(2-methoxy-ethoxy)-quinazolin-2-ylamine]	1 to 10	10 to 20
COCCOc1nc(N)nc2ccc(-c3cccs3)cc12 [Example 58, 4-(2-Methoxy-ethoxy)-6-thiophen-2-yl-quinazolin-2-ylamine]	1 to 10	> 20
CNC(=O)c1ccc(-c2ccc3nc(N)nc(OCCOC)c3c2)cc1 [Example 59, 4-(2-Amino-4-(2-methoxy-ethoxy)-quinazolin-6-yl)-N-methyl-benzamide]	1 to 10	> 20
COCCOc1nc(N)nc2ccc(-c3ccco3)cc12 [Example 60, 4-(2-Methoxy-ethoxy)-6-furan-2-yl-quinazolin-2-ylamine]	1 to 10	> 20
COCCOc1nc(N)nc2ccc(-c3ccsc3)cc12 [Example 61, 4-(2-Methoxy-ethoxy)-6-thiophen-3-yl-quinazolin-2-ylamine]	1 to 10	> 20
COCCOc1nc(N)nc2ccc(-c3ccc(F)c(F)c3)cc12 [Example 62, 6-(3,4-Difluoro-phenyl)-4-(2-methoxy-ethoxy)-quinazolin-2-ylamine]	1 to 10	10 to 20

Structure (SMILES)	EC50 [1] [µM]	CC50 at 3 days [2] [µM]
COCCOc1nc(N)nc2ccc(-c3cccc(C#N)c3)cc12 [Example 63, 3-(2-Amino-4-(2-methoxy-ethoxy)-quinazolin-6-yl)-benzonitrile]	1 to 10	> 20
COCCOc1nc(N)nc2ccc(-c3cn[nH]c3)cc12 [Example 64, 4-(2-Methoxy-ethoxy)-6-(2H-pyrazol-4-yl)-quinazolin-2-ylamine]	1 to 10	> 20
COCCOc1nc(N)nc2ccc(-c3ccc(N)cc3)cc12 [Example 65, 6-(4-Amino-phenyl)-4-(2-methoxy-ethoxy)-quinazolin-2-ylamine]	1 to 10	> 20
COCCOc1nc(N)nc2ccc(-c3ccc(F)c(F)c3F)cc12 [Example 66, 4-(2-Methoxy-ethoxy)-6-(2,3,4-trifluoro-phenyl)-quinazolin-2-ylamine]	1 to 10	> 20
COCCOc1nc(N)nc2ccc(-c3ccc(F)cc3C)cc12 [Example 67, 6-(4-Fluoro-2-methyl-phenyl)-4-(2-methoxy-ethoxy)-quinazolin-2-ylamine]	1 to 10	10 to 20
COCCOc1nc(N)nc2ccc(-c3ccc(O)cc3)cc12 [Example 68, 4-[2-Amino-4-(2-methoxy-ethoxy)-quinazolin-6-yl]-phenol]	0.3 to 1	10 to 20
COCCOc1nc(N)nc2ccc(-c3ccc(Cl)c(C(F)(F)F)c3)cc12 [Example 69, 6-(4-Chloro-3-trifluoromethyl-phenyl)-4-(2-methoxy-ethoxy)-quinazolin-2-ylamine]	1 to 10	> 20
Nc1nc(OCc2ccccc2)c2cc(-c3ccn[nH]3)ccc2n1 [Example 70, 4-Benzyloxy-6-(2H-pyrazol-3-yl)-quinazolin-2-ylamine]	1 to 10	10 to 20
CNC(=O)c1ccc(-c2ccc3nc(N)nc(OCc4ccccc4)c3c2)cc1 [Example 71, 4-(2-Amino-4-benzyloxy-quinazolin-6-yl)-N-methyl-benzamide]	0.3 to 1	> 20
Nc1nc(OCc2ccccc2)c2cc(-c3cn[nH]c3)ccc2n1 [Example 72, 4-benzyloxy-6-(1H-pyrazol-4-yl)-quinazolin-2-ylamine]	1 to 10	> 20
CN(C)CCOCCOc1nc(N)nc2ccc(-c3ccc(OC(F)(F)F)cc3)cc12 [Example 73, 4-[2-(2-Dimethylamino-ethoxy)-ethoxy]-6-(4-trifluoromethoxy-phenyl)-quinazolin-2-ylamine]	1 to 10	10 to 20
CC(C)Oc1nc(N)nc2ccc(-c3ccc(F)cc3F)cc12 [Example 74, 6-(2,4-Difluoro-phenyl)-4-isopropoxy-quinazolin-2-ylamine]	1 to 10	10 to 20
CC(C)Oc1nc(N)nc2ccc(-c3cccc(F)c3F)cc12 [Example 75]	0.3 to 1	> 20
CC(C)Oc1nc(N)nc2ccc(-c3cccc(C(F)(F)F)c3)cc12 [Example 76, 4-Isopropoxy-6-(3-trifluoromethyl-phenyl)-quinazolin-2-ylamine]	1 to 10	> 20
CC(C)Oc1nc(N)nc2ccc(-c3ccccc3C(F)(F)F)cc12 [Example 77, 4-Isopropoxy-6-(2-trifluoromethyl-phenyl)-quinazolin-2-ylamine]	1 to 10	10 to 20
CC(C)Oc1nc(N)nc2ccc(-c3ccc(Cl)cc3)cc12 [Example 78, 4-Isopropoxy-6-(4-chloro-phenyl)-quinazolin-2-ylamine]	1 to 10	> 20
Cc1ccc(-c2ccc3nc(N)nc(OC(C)C)c3c2)cc1 [Example 79, 4-Isopropoxy-6-p-tolyl-quinazolin-2-ylamine]	1 to 10	> 20
CC(C)Oc1nc(N)nc2ccc(-c3ccc(Cl)cc3Cl)cc12 [Example 80, 6-(2,4-Dichloro-phenyl)-4-isopropoxy-quinazolin-2-ylamine]	1 to 10	> 20
